Several values for one entry are separate records, joined by “and”; a condition that tells them apart may be missing. Identical values can stand only once. Like-named read-outs stand apart in the source and are kept apart here.
Columns and labels:
[1] = test system: Lymphocyte Leukemia P-388; assay: Survival time of mice inoculated i.p. with Lymphocyte Leukemia P-388, treated days 5, 9 and 13 (Table A); type: in vivo, mouse; details: for T/C vs mouse leukemia P388: at 50 mg/kg (thiomorpholino) or 8 mg/kg (doxorubicin); for dose required vs mouse leukemia P388: dose for the T/C quoted
[2] = test system: DNA synthesis in L 1210 Cells; assay: Inhibition of DNA synthesis in L 1210 Cells; type: cell-based, mouse
[3] = test system: RNA synthesis in L 1210 Cells; assay: Inhibition of RNA synthesis in L 1210 Cells; type: cell-based, mouse
[4] = prior art; cited from earlier work
DNA = details: cited from earlier work
mouse leukemia P388 = details: cited from earlier work; for activity in mouse leukemia P388 screen / dose requirement in P388 screen: 3-dose schedule q4d 5,9,13; for T/C value against P388: U.S. Pat. No. 4,301,277
B-16 Melanoma = assay: Mouse antitumor efficacy vs B-16 Melanoma (Table B)
P-388 leukemia = assay: Mouse antitumor efficacy vs P-388 leukemia (Table B)
heart = details: some patients; cited from earlier work
[5] = test system: tumors (colon cancer, melanoma); details: cited from earlier work
[6] = Mus musculus, L1210, L-1210 cells, DNA synthesis, read-out: Leukemia L-1210 Cells Inhibition of Synthesis ED50, DNA
[7] = Mus musculus, L1210, L-1210 cells, RNA synthesis, read-out: Leukemia L-1210 Cells Inhibition of Synthesis ED50, RNA
[8] = P-388 in mice, q4d 5,9,13, at optimum dose
[9] = Mus musculus, L1210, read-out: Leukemia L-1210 Cells Inhibition of Synthesis ED50, DNA
[10] = Mus musculus, L1210, read-out: Leukemia L-1210 Cells Inhibition of Synthesis ED50, RNA

Structure (SMILES): COc1cccc2c1C(=O)c1c(O)c3c(c(O)c1C2=O)C[C@@](O)(C(C)=O)C[C@@H]3O[C@H]1C[C@H](N2CCSCC2)[C@H](O)[C@H](C)O1
- T/C vs mouse leukemia P388 [1]: 169%
- dose required vs mouse leukemia P388 [1]: 50 mg/kg

Structure (SMILES): COc1cccc2c1C(=O)c1c(O)c3c(c(O)c1C2=O)C[C@@](O)(C(=O)CO)C[C@@H]3O[C@H]1C[C@H](N2C(=O)COCC2C#N)[C@H](O)[C@H](C)O1 (stereo partly shown) [3'-deamino-3'-(3"-cyano-5"-oxo-4"-morpholinyl)-doxorubicin]
- IC50 ([2]; l1210 cells, read-out: Leukemia L-1210 Cells Inhibition of Synthesis ED50, DNA): 50 nM
- IC50 ([3]; l1210 cells, read-out: Leukemia L-1210 Cells Inhibition of Synthesis ED50, RNA): 30 nM

Structure (SMILES): COc1cccc2c1C(=N)c1c(O)c3c(c(O)c1C2=O)C[C@@](O)(C(C)=O)C[C@@H]3O[C@H]1C[C@H](N)[C@H](O)[C@H](C)O1 [5-Iminodaunorubicin]
- antitumor activity, side effects and dosage [4]: retained activity with reduced side effects

Structure (SMILES): COc1cccc2c1C(=N)c1c(O)c3c(c(O)c1C2=O)C[C@@](O)(C(=O)CO)C[C@@H]3O[C@H]1C[C@H](N)[C@H](O)[C@H](C)O1 [5-iminodoxorubicin]
- antitumor activity, side effects and dosage [4]: showed enhanced activity but required higher dosages

Structure (SMILES): CCCCC(=O)OCC(=O)[C@]1(O)Cc2c(O)c3c(c(O)c2[C@@H](O[C@H]2C[C@H](NC(=O)C(F)(F)F)[C@H](O)[C@H](C)O2)C1)C(=O)c1c(OC)cccc1C3=O [AD32]
- interaction with DNA in vitro (DNA): fail to interact with DNA in vitro
- activity in mouse leukemia P388 screen (mouse leukemia P388): most active new analogues so far
- dose requirement in P388 screen (mouse leukemia P388): required significantly higher doses

Structure (SMILES): COc1cccc2c1C(=O)c1c(O)c3c(c(O)c1C2=O)C[C@@](O)(C(C)=O)C[C@@H]3O[C@H]1C[C@H](N(Cc2ccccc2)Cc2ccccc2)[C@H](O)[C@H](C)O1 [N,N-dibenzyldaunorubicin]
- interaction with DNA in vitro (DNA): fail to interact with DNA in vitro
- activity in mouse leukemia P388 screen (mouse leukemia P388): most active new analogues so far
- dose requirement in P388 screen (mouse leukemia P388): required significantly higher doses

Structure (SMILES): COc1cccc2c1C(=O)c1c(O)c3c(c(O)c1C2=O)C[C@@](O)(C(C)O)C[C@@H]3O[C@H]1C[C@H](N2CCOCC2)[C@H](O)[C@H](C)O1 (stereo partly shown) [NSC 327450, 3'-deamino-3'-(4"-morpholinyl)-13-dihydrodaunorubicin]
- IC50 [2, 6]: 2200 nM
- IC50 [3, 7]: 670 nM
- Mouse Antitumor Efficacy at Optimum Dose, % T/C (B-16 Melanoma; section "ip B16", d 1, ip): 121%
- Survival Time, % T/C [1, 8]: 132%

Structure (SMILES): COc1cccc2c1C(=O)c1c(O)c3c(c(O)c1C2=O)C[C@@](O)(C(C)=O)C[C@@H]3O[C@H]1C[C@H](N2CCOCC2)[C@H](O)[C@H](C)O1 [NSC 327451, 3'-deamino-3'-(4"-morpholinyl)daunorubicin]
- IC50 [2, 6]: 760 nM
- IC50 [3, 7]: 100 nM
- Mouse Antitumor Efficacy at Optimum Dose, % T/C (P-388 leukemia; ip P388, d 1, ip): 155%
- Optimum Dose (P-388 leukemia; ip P388, d 1, ip): 0.25 mg/kg
- Mouse Antitumor Efficacy at Optimum Dose, % T/C (P-388 leukemia; ip P388, d 1, iv): 152%
- Optimum Dose (P-388 leukemia; ip P388, d 1, iv): 0.5 mg/kg
- Mouse Antitumor Efficacy at Optimum Dose, % T/C (B-16 Melanoma; section "ip B16", d 1, ip): 135%
- active dose relative to the dose of doxorubicin (mouse leukemia P388; prior art, P388): one-fortieth the dose of doxorubicin
- T/C value against P388 (mouse leukemia P388; prior art): 166%
- Survival Time, % T/C [1, 8]: 166%

Structure (SMILES): COc1cccc2c1C(=O)c1c(O)c3c(c(O)c1C2=O)C[C@@](O)(C(C)=O)C[C@@H]3O[C@H]1C[C@H](N2CCOCC2C#N)[C@H](O)[C@H](C)O1 (stereo partly shown) [NSC 332304, 3'-deamino-3'-(3"-cyano-4"-morpholinyl)daunorubicin]
- IC50 [2, 9]: 12 nM
- inhibition of RNA vs DNA synthesis [3]: much more inhibitory toward RNA synthesis than toward DNA synthesis
- Mouse Antitumor Efficacy at Optimum Dose, % T/C (P-388 leukemia; ip P388, d 1, ip): 175%
- Optimum Dose (P-388 leukemia; ip P388, d 1, ip): 0.25 mg/kg
- Mouse Antitumor Efficacy at Optimum Dose, % T/C (P-388 leukemia; ip P388, d 1, iv): 157%
- Optimum Dose (P-388 leukemia; ip P388, d 1, iv): 0.5 mg/kg
- Mouse Antitumor Efficacy at Optimum Dose, % T/C (B-16 Melanoma; section "ip B16", d 1, ip): 138%
- Survival Time, % T/C [1, 8]: 197%

Structure (SMILES): COc1cccc2c1C(=O)c1c(O)c3c(c(O)c1C2=O)C[C@@](O)(C(C)O)C[C@@H]3O[C@H]1C[C@H](N2CCOCC2C#N)[C@H](O)[C@H](C)O1 (stereo partly shown) [NSC 332305, 3'-deamino-3'-(3"-cyano-4"-morpholinyl)-13-dihydrodaunorubicin]
- IC50 [2, 9]: 19 nM
- inhibition of RNA vs DNA synthesis [3]: much more inhibitory toward RNA synthesis than toward DNA synthesis
- Mouse Antitumor Efficacy at Optimum Dose, % T/C (B-16 Melanoma; section "ip B16", d 1, ip): 131%
- Survival Time, % T/C [1, 8]: 143%

Structure (SMILES): COc1cccc2c1C(=O)c1c(O)c3c(c(O)c1C2=O)C[C@@](O)(C(C)=O)C[C@@H]3O[C@H]1C[C@H](N2CCC(OC)CC2)[C@H](O)[C@H](C)O1 [NSC 334353, 3-deamino-3'-(4"-methoxy-1"-piperidinyl)-daunorubicin]
- IC50 [2, 9]: 630 nM
- IC50 [3, 10]: 120 nM
- Survival Time, % T/C [1, 8]: 199%

Structure (SMILES): COc1cccc2c1C(=O)c1c(O)c3c(c(O)c1C2=O)C[C@@](O)(C(C)O)C[C@@H]3O[C@H]1C[C@H](N2CCC(OC)CC2)[C@H](O)[C@H](C)O1 (stereo partly shown) [NSC 334354, 3'-deamino-3'-(4'-methoxy-1-piperidinyl)-13-dihydrodaunorubicin]
- IC50 [2, 6]: 580 nM
- IC50 [3, 7]: 80 nM
- Survival Time, % T/C [1, 8]: 199%

Structure (SMILES): COc1cccc2c1C(=O)c1c(O)c3c(c(O)c1C2=O)C[C@@](O)(C(=O)CO)C[C@@H]3O[C@H]1C[C@H](N2CCOCC2)[C@H](O)[C@H](C)O1 [NSC 354646, 3'-deamino-3'-(4"-morpholinyl)doxorubicin]
- Mouse Antitumor Efficacy at Optimum Dose, % T/C (P-388 leukemia; ip P388, d 1, ip): 182%
- Optimum Dose (P-388 leukemia; ip P388, d 1, ip): 0.05 mg/kg
- Mouse Antitumor Efficacy at Optimum Dose, % T/C (P-388 leukemia; ip P388, d 1, iv): > 143%
- Optimum Dose (P-388 leukemia; ip P388, d 1, iv): 0.062 mg/kg
- Mouse Antitumor Efficacy at Optimum Dose, % T/C (P-388 leukemia; ip P388, q4d 1,5,9, ip): 224%
- Optimum Dose (P-388 leukemia; ip P388, q4d 1,5,9, ip): 0.05 mg/kg
- Mouse Antitumor Efficacy at Optimum Dose, % T/C (P-388 leukemia; ip P388, q4d 1,5,9, po): 175%
- Optimum Dose (P-388 leukemia; ip P388, q4d 1,5,9, po): 0.05 mg/kg
- Mouse Antitumor Efficacy at Optimum Dose, % T/C (P-388 leukemia; ip P388, qd 1-9, ip): 209%
- Optimum Dose (P-388 leukemia; ip P388, qd 1-9, ip): 0.0125 mg/kg

Structure (SMILES): COc1cccc2c1C(=N)c1c(O)c3c(c(O)c1C2=O)C[C@@](O)(C(=O)CO)C[C@@H]3O[C@H]1C[C@H](N2CCOCC2)[C@H](O)[C@H](C)O1 [NSC 355277, 3'-deamino-3'-(4"-morpholinyl)-5-iminodoxorubicin]
- Mouse Antitumor Efficacy at Optimum Dose, % T/C (P-388 leukemia; ip P388, d 1, ip): > 193%
- Optimum Dose (P-388 leukemia; ip P388, d 1, ip): 2 mg/kg
- Mouse Antitumor Efficacy at Optimum Dose, % T/C (P-388 leukemia; ip P388, d 1, iv): 166%
- Optimum Dose (P-388 leukemia; ip P388, d 1, iv): 2.5 mg/kg

Structure (SMILES): COc1cccc2c1C(=N)c1c(O)c3c(c(O)c1C2=O)C[C@@](O)(C(O)CO)C[C@@H]3O[C@H]1C[C@H](N2CCOCC2)[C@H](O)[C@H](C)O1 (stereo partly shown) [NSC 355465, 3'-deamino-3'-(4"-morpholinyl)-5-imino-13-dihydrodoxorubicin]
- IC50 [2, 9]: > 100000 nM
- IC50 [3, 10]: 24000 nM
- Survival Time, % T/C [1, 8]: 161%

Structure (SMILES): COc1cccc2c1C(=O)c1c(O)c3c(c(O)c1C2=O)C[C@@](O)(C(=O)CO)C[C@@H]3O[C@H]1C[C@H](N2CCOCC2C#N)[C@H](O)[C@H](C)O1 (stereo partly shown) [NSC 357704, 3'-deamino-3'-(3"-cyano-4"-morpholinyl)doxorubicin]
- Mouse Antitumor Efficacy at Optimum Dose, % T/C (P-388 leukemia; mouse, in vivo): 152% and > 158%
- Optimum Dose (P-388 leukemia; mouse, in vivo): 0.05 mg/kg and 0.1 mg/kg
- Mouse Antitumor Efficacy at Optimum Dose, % T/C (P-388 leukemia; mouse, in vivo, ip): 262% and > 360%
- Optimum Dose (P-388 leukemia; mouse, in vivo, ip): 0.0125 mg/kg and 0.0063 mg/kg
- Mouse Antitumor Efficacy at Optimum Dose, % T/C (B-16 Melanoma; mouse, in vivo, ip): > 138% and 123%

Structure (SMILES): COc1cccc2c1C(=O)c1c(O)c3c(c(O)c1C2=O)C[C@@](O)(C(O)CO)C[C@@H]3O[C@H]1C[C@H](N2CCOCC2C#N)[C@H](O)[C@H](C)O1 (stereo partly shown) [NSC 360291, 3'-deamino-3'-(3"-cyano-4"-morpholinyl)-13-dihydrodoxorubicin]
- Mouse Antitumor Efficacy at Optimum Dose, % T/C (P-388 leukemia; mouse, in vivo, ip): 183% and 267%
- Optimum Dose (P-388 leukemia; mouse, in vivo, ip): 0.05 mg/kg and 0.025 mg/kg
- Mouse Antitumor Efficacy at Optimum Dose, % T/C (B-16 Melanoma; mouse, in vivo, ip): 149% and 121%
- Survival Time, % T/C [1, 8]: 150%

Structure (SMILES): COc1cccc2c1C(=O)c1c(O)c3c(c(O)c1C2=O)C[C@@](O)(C(C)=O)C[C@@H]3O[C@H]1C[C@H](N)[C@H](O)[C@H](C)O1 [daunorubicin]
- IC50 [2, 9]: 660 nM
- IC50 [3, 10]: 330 nM
- Mouse Antitumor Efficacy at Optimum Dose, % T/C (B-16 Melanoma; mouse, in vivo, ip): 195%
- Survival Time, % T/C ([1]; mouse, in vivo): 130%

Structure (SMILES): COc1cccc2c1C(=O)c1c(O)c3c(c(O)c1C2=O)C[C@@](O)(C(=O)CO)C[C@@H]3O[C@H]1C[C@H](N)[C@H](O)[C@H](C)O1 [doxorubicin]
- heart damage in chronic treatment (heart): irreversible heart damage that can be fatal if continued
- IC50 [2, 9]: 1500 nM
- IC50 [3, 10]: 580 nM
- Mouse Antitumor Efficacy at Optimum Dose, % T/C (P-388 leukemia; mouse, in vivo): 185%
- Optimum Dose (P-388 leukemia; mouse, in vivo): 10 mg/kg
- Mouse Antitumor Efficacy at Optimum Dose, % T/C (P-388 leukemia; mouse, in vivo, ip): 252% and 257% and > 285%
- response of patients with some serious tumor types (colon cancer, melanoma) [5]: essentially no patients with some serious tumor types (colon cancer, melanoma) respond
- T/C value against P388 (mouse leukemia P388; prior art): 160%
- T/C vs mouse leukemia P388 [1]: 160%
- dose required vs mouse leukemia P388 [1]: 8 mg/kg
- Survival Time, % T/C ([1]; mouse, in vivo): 160%

Reference: patent publication US4585859A, “Analogues of morpholinyl daunorubicin and morpholinyl doxorubicin” (priority 1984, dated 1986)
